The values below come from patent US5973112A, “Collagen mimics” (Wisconsin Alumni Research Foundation, priority 1997, dated 1999).

The nature of data set [1]: crystalline structure, Cγ-Cδ bond length. The data set is classed as physicochemical. The source says:
The origin of this effect on trans:cis ratio was explored by determining the crystalline structures of AcProOMe, AcHypOMe, and AcFlpOMe, Panasik et al., Int. J. Pept. Protein Res., 44:262-269. […] This order is consistent with an inductive effect in which the substituent in the 4-position withdraws electron density away from the Cγ-Cδ bond. A shorter Cγ-Cδ bond length diminishes steric clashes between atoms in the trans isomer, but has no effect on the cis isomer. The inductive effect from the hydroxyl group of Hyp residues is consistent with the effect of Hyp on collagen stability. Other manifestations of the inductive effects of Hyp and Flp residues were also found by Panasik et al. and by Eberhardt et al. Similar inductive effects should be manifested in 4(S)-fluoroproline and in 4,4-difluoroproline.

The nature of data set [2]: trans:cis ratio of the proline peptide bond in N-acetyl proline methylester derivatives. The note with it: for ΔΔG: relative to AcProOMe. The format is physicochemical. As to the method:
To begin to test this hypothesis, it was determined how electron-withdrawing groups affect the trans:cis ratio. N-Acetyl proline methylester (AcProOMe), N-acetyl-4(R)-hydroxyproline methylester (AcHypOMe), and N-acetyl-4(R)-fluoroproline (AcFlpOMe) were synthesized and their preferences for the trans state were determined, Eberhardt et al., J. Am. Chem. Soc., 118:12261-12266 (1996).

In data set [1], `COC(=O)[C@@H]1C[C@@H](O)CN1C(C)=O` [AcHypOMe, N-acetyl-4(R)-hydroxyproline methylester] came in with a Cy-Cδ bond length of 1.510 Å. In data set [2], the “trans:cis ratio” value is 5.8 and the ΔΔG was 0.18 kcal/mol.
The matching figures for `COC(=O)[C@@H]1CCCN1C(C)=O` [AcProOMe, N-Acetyl proline methylester]: 1.523 Å, 4.3 and 0 kcal/mol.
